Like-named read-outs stand apart in the source and are kept apart here.
System: MCH receptors
Assay: MCH receptor activity class (method not given)
[1] = MCH receptor, class by percent of control at 10^-7 M or IC50
[2] = MCH receptor activity class 1-3 (percent of control at 10^-7 M or IC50)
[3] = activity class per percent of control at 10^-7 M or IC50
[4] = class by percent of control at 10^-7 M or IC50
[5] = class by percent of control at 10^−7 M or IC50
[6] = class 1-3 by percent of control at 10^-7 M or IC50

Row | Compound | class [4] | further results
1 | CN(C)c1cc(N[C@H]2CC[C@@H](CNC(=O)c3ccc4nonc4c3)CC2)nc2ccccc12 [compound 150, N-[(cis-4-{[4-(dimethylamino)quinolin-2-yl]amino}cyclohexyl)methyl]-2,1,3-benzoxadiazole-5-carboxamide] | – | class [1]: 3 (Class 3 The value of percent of control at 10^−7 M was more than 60% or the value of IC50 was more than 200 nM.)
2 | Cc1cc(C)c(NC(=S)N[C@H]2CC[C@@H](Nc3nccc(N(C)C)n3)CC2)cc1C [compound 2334] | – | class [2]: 3 (Class 3 The value of percent of control at 10^−7 M was more than 60% or the value of IC50 was more than 200 nM.)
3 | CN(C)c1nc(N[C@H]2CC[C@@H](CNC(=O)Cc3ccc(F)cc3Cl)CC2)nc2c1CCCC2 [compound 1063] | – | class [3]: 3 (Class 3 The value of percent of control at 10^−7 M was more than 60% or the value of IC50 was more than 200 nM.)
4 | CN(C)c1ccnc(N[C@H]2CC[C@@H](CNC(=O)c3cc(C(F)(F)F)ccc3F)CC2)n1 [compound 410] | 3 (Class 3 The value of percent of control at 10^−7 M was more than 60% or the value of IC50 was more than 200 nM.) | –
5 | CCOc1c(Br)cc(Br)cc1CNC[C@H]1CC[C@@H](Nc2cc(N(C)C)c3ccccc3n2)CC1 [compound 1204] | 3 (Class 3 The value of percent of control at 10^−7 M was more than 60% or the value of IC50 was more than 200 nM.) | –
6 | CC(NC(=O)N[C@H]1CC[C@@H](Nc2cc(N(C)C)c3ccccc3n2)CC1)c1ccc(Br)cc1 (relative stereo) [compound 2158] | 3 (Class 3 The value of percent of control at 10^−7 M was more than 60% or the value of IC50 was more than 200 nM.) | –
7 | C[C@H](C(=O)N[C@H]1CC[C@@H](Nc2nccc(N(C)C)n2)CC1)c1ccc(-c2ccccc2)c(F)c1 [compound 880] | 3 (Class 3 The value of percent of control at 10^−7 M was more than 60% or the value of IC50 was more than 200 nM.) | –
8 | Cc1cccc(Oc2ncccc2C(=O)N[C@H]2CC[C@@H](Nc3ncc(C)c(N(C)C)n3)CC2)c1 [compound 2885, N-(cis-4-{[4-(dimethylamino)-5-methylpyrimidin-2-yl]amino}cyclohexyl)-2-(3-methylphenoxy)nicotinamide] | – | class [5]: 1 (Class 1: The value of percent of control at 10^−7 M was less than 40% or the value of IC50 was less than 50 nM.)
9 | CN(C)c1ccnc(N[C@H]2CC[C@@H](NC(=O)c3sc(Cl)c(Cl)c3Cl)CC2)n1 [compound 350] | 3 (Class 3 The value of percent of control at 10^−7 M was more than 60% or the value of IC50 was more than 200 nM.) | –
10 | CN(C)c1nc(N[C@H]2CC[C@@H](NC(=O)c3ccc(-c4ccc(Cl)cc4[N+](=O)[O-])o3)CC2)nc2c1CCCC2 [compound 952, 5-(4-chloro-2-nitrophenyl)-N-(cis-4-{[4-(dimethylamino)-5,6,7,8-tetrahydroquinazolin-2-yl]amino}cyclohexyl)-2-furamide] | 1 (Class 1: The value of percent of control at 10^−7 M was less than 40% or the value of IC50 was less than 50 nM.) | –
11 | Cc1ccccc1CNC(=O)N[C@H]1CC[C@@H](Nc2cc(N(C)C)c3ccccc3n2)CC1 [compound 2146] | 3 (Class 3 The value of percent of control at 10^−7 M was more than 60% or the value of IC50 was more than 200 nM.) | –
12 | Cc1cc(N(C)C)nc(N[C@H]2CC[C@@H](C(=O)NCc3cc(Cl)ccc3Cl)CC2)n1 [Example 2573, cis-N-(2,5-dichlorobenzyl)-4-{[4-(dimethylamino)-6-methylpyrimidin-2-yl]amino}cyclohexanecarboxamide] | – | class: 1
13 | Cc1cc(=O)oc2c(OCC(=O)N[C@H]3CC[C@@H](Nc4nccc(N(C)C)n4)CC3)cccc12 [compound 363] | 3 (Class 3 The value of percent of control at 10^−7 M was more than 60% or the value of IC50 was more than 200 nM.) | –
14 | CN(C)c1cc(N[C@H]2CC[C@@H](CNC(=O)Nc3ccccc3C(F)(F)F)CC2)nc2ccccc12 [compound 2366] | – | class [2]: 3 (Class 3 The value of percent of control at 10^−7 M was more than 60% or the value of IC50 was more than 200 nM.)
15 | CN(C)c1nc(N[C@H]2CC[C@@H](NC(=S)NCc3ccc(Cl)c(Cl)c3)CC2)nc2c1CCCC2 [compound 2005] | – | class [1]: 3 (Class 3 The value of percent of control at 10^−7 M was more than 60% or the value of IC50 was more than 200 nM.)
16 | CN(C)c1cc(N[C@H]2CC[C@@H](NC(=O)Nc3c(Cl)c(Cl)cc(Cl)c3Cl)CC2)nc2ccccc12 [compound 2138] | 3 (Class 3 The value of percent of control at 10^−7 M was more than 60% or the value of IC50 was more than 200 nM.) | –
17 | Cc1c(C(=O)N[C@H]2CC[C@@H](Nc3nc4c(c(N(C)C)n3)CCCC4)CC2)cc(-c2ccccc2)n1-c1ccccc1 [compound 1027] | – | class [3]: 2 (Class 2: The value of percent of control at 10^−7 M was from 40% to 60% or the value of IC′50 was from 50 nM to 200 nM.)
18 | CN(C)c1nc(N[C@H]2CC[C@@H](NC(=O)Nc3ccc(F)cc3)CC2)nc2c1CCCC2 [compound 1664] | – | class (activity class 1-3: percent of control at 10^-7 M or IC50): 2 (Class 2: The value of percent of control at 10^−7 M was from 40% to 60% or the value of IC′50 was from 50 nM to 200 nM.)

Row | Compound | class [4] | further results
19 | CN(C)c1ccnc(N[C@H]2CC[C@@H](NC(=O)c3ccc4nonc4c3)CC2)n1 [compound 241, N-(cis-4-{[4-(dimethylamino)pyrimidin-2-yl]amino}cyclohexyl)-2,1,3-benzoxadiazole-5-carboxamide] | 1 (Class 1: The value of percent of control at 10^−7 M was less than 40% or the value of IC50 was less than 50 nM.) | –
20 | COc1ccc(NC(=S)N[C@H]2CC[C@@H](Nc3nccc(N(C)C)n3)CC2)c(OC)c1 [compound 2260] | 2 (Class 2: The value of percent of control at 10^−7 M was from 40% to 60% or the value of IC′50 was from 50 nM to 200 nM.) | –
21 | CN(C)c1nc(N[C@H]2CC[C@@H](CNCc3csc4ccccc34)CC2)nc2c1CCCC2 [compound 1420] | 3 (Class 3 The value of percent of control at 10^−7 M was more than 60% or the value of IC50 was more than 200 nM.) | –
22 | CN(C)c1nc(N[C@H]2CC[C@@H](NC(=O)NCCc3ccccc3)CC2)nc2c1CCCC2 [compound 1906] | – | class [1]: 3 (Class 3 The value of percent of control at 10^−7 M was more than 60% or the value of IC50 was more than 200 nM.)
23 | CCc1cccc(C(C)C)c1NC(=O)N[C@H]1CC[C@@H](Nc2cc(N(C)C)c3ccccc3n2)CC1 [compound 2106, N-(cis-4-{[4-(dimethylamino)quinolin-2-yl]amino}cyclohexyl)-N′-(2-ethyl-6-isopropylphenyl)urea] | 2 (Class 2: The value of percent of control at 10^−7 M was from 40% to 60% or the value of IC′50 was from 50 nM to 200 nM.) | –
24 | COc1cccc(OC)c1CNC[C@H]1CC[C@@H](Nc2nccc(N(C)C)n2)CC1 [compound 1243] | 2 (Class 2: The value of percent of control at 10^−7 M was from 40% to 60% or the value of IC′50 was from 50 nM to 200 nM.) | –
25 | CC(C)S(=O)(=O)c1csc(C(=O)N[C@H]2CC[C@@H](Nc3nc4c(c(N(C)C)n3)CCCC4)CC2)c1Cl [compound 537] | – | class [6]: 3 (Class 3 The value of percent of control at 10^−7 M was more than 60% or the value of IC50 was more than 200 nM.)
26 | CN(C)c1cc(N[C@H]2CC[C@@H](CNCC=C(c3ccccc3)c3ccccc3)CC2)nc2ccccc12 [compound 1158] | 1 (Class 1: The value of percent of control at 10^−7 M was less than 40% or the value of IC50 was less than 50 nM.) | –
27 | CN(C)c1ccnc(N[C@H]2CC[C@@H](CNCc3cc(C(F)(F)F)cc(Cl)c3F)CC2)n1 [compound 1318] | 3 (Class 3 The value of percent of control at 10^−7 M was more than 60% or the value of IC50 was more than 200 nM.) | –
28 | Cc1cccc([N+](=O)[O-])c1NC(=O)N[C@H]1CC[C@@H](Nc2nc3c(c(N(C)C)n2)CCCC3)CC1 [compound 1802] | 3 (Class 3 The value of percent of control at 10^−7 M was more than 60% or the value of IC50 was more than 200 nM.) | –
29 | Cc1cnc(N[C@H]2CC[C@@H](CNC(=O)c3ccc(Cl)c(Cl)c3)CC2)nc1N(C)C [compound 2707, 3,4-dichloro-N-[(cis-4-{[4-(dimethylamino)-5-methylpyrimidin-2-yl]amino}cyclohexyl)methyl]benzamide] | – | class [5]: 1 (Class 1: The value of percent of control at 10^−7 M was less than 40% or the value of IC50 was less than 50 nM.)
30 | COc1ccc(CNC[C@H]2CC[C@@H](Nc3nccc(N(C)C)n3)CC2)cc1C [compound 1311] | 2 (Class 2: The value of percent of control at 10^−7 M was from 40% to 60% or the value of IC′50 was from 50 nM to 200 nM.) | –
31 | Cc1cc(N(C)C)nc(N[C@H]2CC[C@@H](C(=O)NCc3ccc(F)cc3)CC2)n1 [compound 2799, cis-4-{[4-(dimethylamino)-6-methylpyrimidin-2-yl]amino}-N-(4-fluorobenzyl)cyclohexanecarboxamide] | – | class [5]: 2 (Class 2: The value of percent of control at 10^−7 M was from 40% to 60% or the value of IC′50 was from 50 nM to 200 nM.)
32 | Cc1cc(C(=O)N[C@H]2CC[C@@H](Nc3ncc(C)c(N(C)C)n3)CC2)ccc1Br [compound 2920, 4-bromo-N-(cis-4-{[4-(dimethylamino)-5-methylpyrimidin-2-yl]amino}cyclohexyl)-3-methylbenzamide] | – | class [5]: 1 (Class 1: The value of percent of control at 10^−7 M was less than 40% or the value of IC50 was less than 50 nM.)
33 | CN(C)c1nc(N[C@H]2CC[C@@H](NC(=O)c3cccc(Cl)c3)CC2)nc2c1CCCC2 [compound 460] | – | class [6]: 1 (Class 1: The value of percent of control at 10^−7 M was less than 40% or the value of IC50 was less than 50 nM.)
34 | Cc1ccc(C(=O)NC[C@H]2CC[C@@H](Nc3ncc(C)c(N(C)C)n3)CC2)cc1 [compound 2691] | – | class [5]: 3 (Class 3 The value of percent of control at 10^−7 M was more than 60% or the value of IC50 was more than 200 nM.)
35 | COc1ccccc1CCNC[C@H]1CC[C@@H](Nc2cc(N(C)C)c3ccccc3n2)CC1 [compound 1470] | 3 (Class 3 The value of percent of control at 10^−7 M was more than 60% or the value of IC50 was more than 200 nM.) | –
36 | CN(C)c1nc(N[C@H]2CC[C@@H](NC(=O)COc3c(F)c(F)c(F)c(F)c3F)CC2)nc2c1CCCC2 [compound 558] | – | class [6]: 3 (Class 3 The value of percent of control at 10^−7 M was more than 60% or the value of IC50 was more than 200 nM.)
